Values after ≈ are worked out from the molar mass of the structure shown. Read-outs that look alike come from different tables or passages of the source.
What was measured:
[1] = Cellular toxicity (TD50) in the anti-RSV test; details: human, hep-2 cells
[2] = Cellular toxicity, minimal toxic dose that inhibits all growth, Vero; format: cell-based; details: monkey, vero cells
Method: (§1) The cytotoxic activities for the compounds of Examples 1 and 2, amantadine and ribavirin were determined in five different cell lines.

[3] = tested on: respiratory syncytial virus RSVA2 (subgroup A); assay: Anti-RSV activity (RSVA2) in HEp-2 cells, crystal violet staining of cytopathic effect; format: cell-based; details: for EC50 / IC50: human respiratory syncytial virus; for EC50: read-out: Anti-RSVA2 ED50; for activity against subgroup A (RSVA2): in words
[4] = tested on: respiratory syncytial virus RSV-9320 (subgroup B); assay: Anti-RSV activity (RSV-9320) in HEp-2 cells; format: cell-based; details: for IC50: human respiratory syncytial virus; for activity against subgroup B (RSV-9320): in words
[5] = Cellular toxicity, minimal toxic dose that inhibits all growth, MDCK; format: cell-based, Canine; details: dog
Method: as §1

[6] = Cellular toxicity, minimal toxic dose that inhibits all growth, A549; format: cell-based; details: human, a549 cells
Method: as §1

[7] = Cellular toxicity, minimal toxic dose that inhibits all growth, MRC-5; format: cell-based; details: human, mrc-5 cells
Method: as §1

[8] = Cellular toxicity, minimal toxic dose that inhibits all growth, HEp-2; format: cell-based; details: human, hep-2 cells
Method: as §1

FluA/WSN = assay: Anti-flu activity against FluA/WSN in MDCK cells; format: cell-based, influenza A virus
in vitro = details: human, hep-2 cells
[9] = Solubility at 100 μg/ml (footnote of Table 4); format: physicochemical; details: footnote a of Table 4
[10] = Table 4, Vero, read-out: Minimal Toxic Dose that Inhibits All Growth, Vero
[11] = HEp-2, read-out: Median Inhibitory Concentration (IC50), RSV-9320
[12] = Table 4, MDCK, read-out: Minimal Toxic Dose that Inhibits All Growth, MDCK
[13] = Table 4, A549, read-out: Minimal Toxic Dose that Inhibits All Growth, A549
[14] = Table 4, MRC-5, read-out: Minimal Toxic Dose that Inhibits All Growth, MRC-5
[15] = Table 4, HEp-2, read-out: Minimal Toxic Dose that Inhibits All Growth, HEp-2
[16] = 72 h, Table 2, HEp-2 cells, compound added 2 h before infection, 3 days
[17] = Table 3, HEp-2 cells, read-out: Median Inhibitory Concentration (IC50), RSVA2
[18] = Table 3, HEp-2 cells, read-out: Median Inhibitory Concentration (IC50), RSV-9320

NC12CC3CC(CC(C3)C1)C2 [Amantadine, amantadine, reference compound]
CC50 at 72 h [1]: 100 µg/mL (≈ 661 µM)
MCC [2, 10]: 100 µg/mL
EC50 ([3]; HEp-2, 72 h): 50 µg/mL (≈ 331 µM)
IC50 [4, 11]: 16 µg/mL (≈ 106 µM)
MCC [5, 12]: > 100 µg/mL
MCC [6, 13]: > 100 µg/mL
MCC [7, 14]: 100 µg/mL
MCC [8, 15]: 100 µg/mL

Cc1nc(=O)c(C#N)c(NCCc2cccnc2)[nH]1 [Compound 1]
MCC [2]: > 100 µg/mL
activity against subgroup A (RSVA2) ([3]; HEp-2 cells): active
EC50 [3, 16]: 0.05 µg/mL (≈ 0.196 µM)
IC50 [3, 17]: ≤ 0.16 µg/mL
anti-flu activity against FluA/WSN (FluA/WSN): inactive
activity against subgroup B (RSV-9320) ([4]; HEp-2 cells): active
IC50 [4, 18]: ≤ 0.16 µg/mL
MCC ([5]; mdck): > 100 µg/mL
MCC [6]: > 100 µg/mL
CC50 at 72 h (in vitro): > 16 µg/mL
MCC [7]: 100 µg/mL
MCC [8]: > 100 µg/mL

Cc1nc(=O)c(Br)c(NCc2cncc(C#N)c2)[nH]1 [Compound 2]
MCC [2]: > 50 µg/mL
activity against subgroup A (RSVA2) ([3]; HEp-2 cells): active
EC50 [3, 16]: 0.05 µg/mL (≈ 0.156 µM)
IC50 [3, 17]: ≤ 0.16 µg/mL
anti-flu activity against FluA/WSN (FluA/WSN): inactive
activity against subgroup B (RSV-9320) ([4]; HEp-2 cells): active
IC50 [4, 18]: ≤ 0.16 µg/mL
MCC ([5]; mdck): > 50 µg/mL
MCC [6]: > 50 µg/mL
CC50 at 72 h (in vitro): > 16 µg/mL
MCC [7]: > 50 µg/mL
MCC [8]: 50 µg/mL
solubility at 100 μg/ml [9]: Not completely soluble

CC(C)(C)c1nc(O)c(C#N)c(NCc2cccnc2)n1 [Compound 3]
EC50 [3, 16]: 1.6 to 5 µg/mL (≈ 5.65 to 17.6 µM)
CC50 at 72 h (in vitro): > 16 µg/mL

Cc1nc(O)c(C#N)c(NCCc2ccncc2)n1 [Compound 4]
EC50 [3, 16]: 0.16 µg/mL (≈ 0.627 µM)
CC50 at 72 h (in vitro): > 16 µg/mL

Cc1nc(=O)c(C#N)c(NCc2ccccc2)[nH]1 [Compound 5]
EC50 [3, 16]: 1.6 µg/mL (≈ 6.66 µM)
CC50 at 72 h (in vitro): > 16 µg/mL

Cc1nc(=O)c(C#N)c(NCCN(C)C)[nH]1 [Compound 6]
EC50 [3, 16]: 5 µg/mL (≈ 22.6 µM)
CC50 at 72 h (in vitro): > 16 µg/mL

Cc1nc(=O)c(C#N)c(NCCN2CCCC2)[nH]1 [Compound 7]
EC50 [3, 16]: 1.6 µg/mL (≈ 6.47 µM)
CC50 at 72 h (in vitro): 16 µg/mL (≈ 64.7 µM)

Cc1nc(=O)c(Br)c(NCCc2cccnc2)[nH]1 [Compound 8]
EC50 [3, 16]: 0.005 µg/mL (≈ 0.0162 µM)
CC50 at 72 h (in vitro): > 16 µg/mL

CCCN(CCC)CCNc1[nH]c(C)nc(=O)c1Br [Compound 9]
EC50 [3, 16]: 1.6 µg/mL (≈ 4.83 µM)
CC50 at 72 h (in vitro): > 16 µg/mL

Cc1nc(=O)c(Br)c(NCc2ccc3c(c2)OCO3)[nH]1 [Compound 10]
EC50 [3, 16]: 0.05 µg/mL (≈ 0.148 µM)
CC50 at 72 h (in vitro): > 16 µg/mL

Cc1nc(=O)c(Br)c(NCc2ccsc2)[nH]1 [Compound 11]
EC50 [3, 16]: 0.5 µg/mL (≈ 1.67 µM)
CC50 at 72 h (in vitro): > 16 µg/mL

C=CCOc1ccc(CCNc2[nH]c(C)nc(=O)c2Br)cc1OC [Compound 12]
EC50 [3, 16]: 0.5 µg/mL (≈ 1.27 µM)
CC50 at 72 h (in vitro): > 16 µg/mL

Cc1nc(=O)c(Cl)c(NCc2cncc(Br)c2)[nH]1 [Compound 13]
EC50 [3, 16]: 0.016 µg/mL (≈ 0.0485 µM)
CC50 at 72 h (in vitro): > 16 µg/mL

COc1ccc(Br)cc1CCNc1[nH]c(C)nc(=O)c1Br [Compound 14]
EC50 [3, 16]: 0.5 µg/mL (≈ 1.2 µM)
CC50 at 72 h (in vitro): > 16 µg/mL

Cc1nc(=O)c(F)c(NCc2cccnc2)[nH]1 [Compound 15]
EC50 [3, 16]: 0.05 µg/mL (≈ 0.213 µM)
CC50 at 72 h (in vitro): > 16 µg/mL

Cc1nc(=O)c(Br)c(NCCN(C)C)[nH]1 [Compound 16]
EC50 [3, 16]: 0.16 µg/mL (≈ 0.582 µM)
CC50 at 72 h (in vitro): > 16 µg/mL

Cc1nc(NCc2cncc(Br)c2)c(Br)c(=O)[nH]1 [Compound 17]
EC50 [3, 16]: 0.016 µg/mL (≈ 0.0428 µM)
CC50 at 72 h (in vitro): > 16 µg/mL

NC(=O)c1ncn([C@@H]2O[C@H](CO)[C@@H](O)[C@H]2O)n1 [Ribavirin, ribavirin, reference compound]
CC50 at 72 h [1]: 50 µg/mL (≈ 205 µM)
MCC [2, 10]: 100 µg/mL
EC50 ([3]; HEp-2, 72 h): 1.6 to 5 µg/mL (≈ 6.55 to 20.5 µM)
IC50 ([3]; HEp-2, read-out: Median Inhibitory Concentration (IC50), RSVA2): 1.6 to 5 µg/mL (≈ 6.55 to 20.5 µM)
IC50 [4, 11]: 5 µg/mL (≈ 20.5 µM)
MCC [5, 12]: 100 µg/mL
MCC [6, 13]: 100 µg/mL
MCC [7, 14]: 100 µg/mL
MCC [8, 15]: 50 µg/mL

From patent US5256668A, “Aminopyrimidine derivatives as antiviral agents for respiratory syncytial virus” (American Home Products Corporation, priority 1993, dated 1993)
